Results as given in article PMC6288471 (Frontiers in Veterinary Science, 2018).
Where two headings read alike, the source gives them in different places.

Legend:
[1] = Clinical observation for adverse effects / safety testing of a trial IV dose; type: in vivo, horses
Protocol: The paste was transferred to a 60 mL syringe (Becton-Dickinson) and stored at room temperature until administration. For IV formulation, crushed tablets were dissolved in a vehicle consisting of 10% v/v N,N-dimethylacetamide (EMD Millipore, Billerica, MA, USA), 17% v/v propylene glycol (Sigma-Aldrich), 17% v/v dimethyl sulfoxide (DMSO, Sigma-Aldrich), and 56% v/v deionized water (MilliQ® water, Q-Pod®, EMD Millipore). After vigorous vortexing, the formulation was sterile filtered through a […] cellulose acetate filter (Corning Inc., Corning, NY, USA) then drawn into 60 mL syringes. The IV formulation was prepared 24 h before administration and stored at room temperature. […] To ensure that the vehicle was not toxic, safety testing was performed on a trial IV dose given to a different horse.
Some individual horses had test results that were slightly above or below the established reference intervals, but this likely represented normal biological variability. […] Again, we attributed this to normal biological variation.

[2] = cats, cited from earlier work
[3] = Clinical pathologic testing: automated hemogram; type: in vivo; settings: horses, 24 h after PO or IV administration
Protocol: Automated hemogram results were obtained from the EDTA-anticoagulated blood with a hematology analyzer (ADVIA 2120, Siemens Healthcare Diagnostics Inc., Tarrytown, NJ, USA). To verify the automated platelet counts, modified Wright's-stained blood smears were evaluated for platelet clumps by trained medical technologists. Biochemical analysis for renal analytes (serum urea nitrogen and creatinine concentrations), liver enzymes (sorbitol dehydrogenase, glutamate dehydrogenase, aspartate aminotransferase and gamma glutamyl transferase activities), protein-related analytes (total protein, albumin, and globulin concentrations), and the acute phase protein, serum amyloid A, were performed with an automated chemistry analyzer (Hitachi P modular, Roche Diagnostics, Indianapolis, IN, USA) using manufacturer's reagents, with the exception of sorbitol dehydrogenase (Sigma-Aldrich), glutamate dehydrogenase (Randox Laboratories Ltd, Antrim, UK), and serum amyloid A (LZ test Eiken-SAA, Mast House, Merseyside, UK).

[4] = rats; cited from earlier work
[5] = other animals; cited from earlier work
[6] = rabbits, cited from earlier work
plasma protein = settings: rabbits; cited from earlier work
P-glycoprotein = settings: cited from earlier work
[7] = chimpanzees; cited from earlier work
[8] = Protein binding of apixaban in spiked platelet-poor plasma (ultrafiltration, UPLC-MS); type: in vitro ADME, horse
Protocol: The supernatant was filtered with a […] syringe filter (Corning Inc.). […] Half of the sample was subsequently frozen at −20°C and the rest was ultracentrifuged at 16,000 × g for 30 min in a molecular exclusion device (Amicon Ultra 30k filter, Millipore), to remove the major plasma proteins. The ultrafiltrate was then frozen at −20°C. Both the spiked plasma and the ultrafiltrate of the spiked plasma were analyzed for apixaban using UPLC-MS.

[9] = humans; cited from earlier work
[10] = biological target: T1, bovine activated Factor X (Bos taurus, UniProt P00743); experiment: Apixaban-calibrated chromogenic anti-Xa activity assay in platelet-poor plasma of dosed horses; type: in vivo, horse; settings: for Anti-Xa activity (ng/mL), median (range): PO 0.2 mg/kg
T1 construct: purchased Diagnostica Stago STA®-Liquid anti-Xa
Protocol: The PPP was harvested from the supernatant of PRP after high-speed centrifugation (13,000 × g, Accuspin Micro, Thermo Scientific, Rockford, IL, USA) for 5 min. The PPP was frozen at −20°C and assays were performed in batches. The PPP was thawed at 37°C in a water bath before analysis with an automated coagulation analyzer (STA® Compact, Diagnostica Stago, Parsipanny, NJ, USA). The assay is configured with a bovine activated Factor X reagent added in excess to the test plasma and a chromogenic substrate of Factor Xa (STA®-Liquid anti-Xa, Diagnostica Stago). In this assay, residual, uninhibited Factor Xa cleaves the chromogenic substrate such that the inverse of the color change in the reaction mixture is proportional to the drug concentration in the test plasma.

platelets = settings: PRP spiked ex vivo with concentrations similar to 44 to 74 ng/mL, data not shown

T1 sequence (P00743 234-492 limits assumed): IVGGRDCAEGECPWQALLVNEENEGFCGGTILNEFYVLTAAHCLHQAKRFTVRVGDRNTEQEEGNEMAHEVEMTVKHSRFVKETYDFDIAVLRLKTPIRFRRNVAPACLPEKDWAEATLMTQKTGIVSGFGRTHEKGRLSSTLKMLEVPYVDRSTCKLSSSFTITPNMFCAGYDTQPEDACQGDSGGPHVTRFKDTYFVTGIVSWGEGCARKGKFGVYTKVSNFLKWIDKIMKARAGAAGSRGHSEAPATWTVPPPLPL
T1 sequence (P00743 41-180 limits assumed): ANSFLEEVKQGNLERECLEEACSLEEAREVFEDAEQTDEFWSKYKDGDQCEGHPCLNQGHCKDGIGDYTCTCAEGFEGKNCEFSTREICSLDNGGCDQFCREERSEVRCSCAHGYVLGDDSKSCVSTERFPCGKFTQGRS

With `COc1ccc(-n2nc(C(N)=O)c3c2C(=O)N(c2ccc(N4CCCCC4=O)cc2)CC3)cc1` [apixaban] the “clinically apparent adverse effects” value ([1]; horses, oral and IV formulations) was “no clinically apparent adverse effects”, the “changes in clinical pathologic test results” value ([1]; trial IV dose in a different horse, 24 h after IV bolus) was “no changes” and the adverse clinical reactions ([1]; trial IV dose of dissolved apixaban in a different horse) was “no adverse clinical reactions”. The half-life ([2]; 0.2 mg/kg IV dose) was 66 min, the Cmax ([2]; IV administration 0.2 mg/kg) was 460 ng/mL and the bioavailability ([2]; oral 0.2 mg/kg) was 85%. For the same compound, the Cmax ([2]; oral administration 0.2 mg/kg) was 74 ng/mL, the “changes in hematologic test results” value [3] was “no significant changes” and the “availability after oral administration” value [4] was 50%. For the same compound, the “fecal route of elimination, share of the dose” value [5] was “more than 54%”, the half-life ([6]; 2.5 mg/kg IV dose) was 36 min and the oral absorption ([6]; 10 mg/kg) was 3%. For the same compound, the apixaban protein bound (plasma protein) was ~ 60%, the P-glycoprotein substrate (P-glycoprotein) was “substrate” and the “availability after oral administration” value [7] was 50%. It also gave a fraction unbound at 30 min, 200 nM ([8]; horse PPP spiked at 92 ng/mL (200 nM), read-out: mean percentage of protein binding (converted)) of 0.076, a fraction unbound at 30 min, 1000 nM ([8]; horse PPP spiked at 460 ng/mL (1,000 nM), read-out: mean percentage of protein binding (converted)) of 0.015 and a fraction unbound at 30 min ([8]; horse plasma, range as given in abstract) of 0.01 to 0.08. For the same compound, the “availability after oral administration” value [9] was 50%, the “fecal route of elimination, share of the dose” value [9] was > 46% and the “Anti-Xa activity (ng/mL), median (range)” value ([10]; 15 min) was 7.4 (5.9–9.4) ng/mL. The “Anti-Xa activity (ng/mL), median (range)” value ([10]; 30 min) was 7.5 (6.8–12.5) ng/mL, the “Anti-Xa activity (ng/mL), median (range)” value ([10]; 45 min) was 9.9 (8.4–10.1) ng/mL and the “Anti-Xa activity (ng/mL), median (range)” value ([10]; 1 h) was 10.9 (8.4–17) ng/mL. For the same compound, the “Anti-Xa activity (ng/mL), median (range)” value ([10]; 2 h) was 9.7 (7.4–14.8) ng/mL, the “Anti-Xa activity (ng/mL), median (range)” value ([10]; 4 h) was 9.3 (3.8–12) ng/mL and the “Anti-Xa activity (ng/mL), median (range)” value ([10]; 6 h) was 10.7 (6.3–13.8) ng/mL. The “Anti-Xa activity (ng/mL), median (range)” value ([10]; 24 h) was 7.6 (0–8.3) ng/mL, the “change in anti-Xa activity” value ([10]; oral dosing of apixaban) was “No change” and the “inhibition of platelet activation in spiked equine PRP” value (platelets) was “did not see any inhibition”.
